According to patent US20110104159A1, “COMPOSITIONS AND METHODS FOR TREATING, CONTROLLING, REDUCING, AMELIORATING, OR PREVENTING ALLERGY” (priority 2006, published 2011):
Several values for one entry are separate records, joined by “and”; a condition that tells them apart may be missing. Equal entries are not always repeated.

Columns and labels:
[1] = test system: normotensive rabbits; details: topical eye drops, normotensive rabbits [27]; cited from earlier work
[2] = test system: PGE2; assay: Prostaglandin E2 (PGE2) measurement in aqueous humor; assay type: in vivo, Rabbit; details: for PGE2 in aqueous humor at the second paracentesis, Mean: group mean; for PGE2 in aqueous humor at the second paracentesis: individual eye sample, listed as BOL; for PGE2 in aqueous humor, statistical comparison with CTR: p<0.05
Method: (§1) Each rabbit was placed in a restraint device and tagged with the alphanumeric code. The formulations were instilled (50 μl) into the conjunctival sac of both eyes 180, 120, 90 and 30 min before the first paracentesis; then 15, 30, 90 min after the first paracentesis. To perform the first paracentesis the animals were anaesthetized by intravenous injection of 5 mg/kg Zoletil® (Virbac; 2.5 mg/kg tiletamine HCl and 2.5 mg/kg zolazepam HCl) and one drop of local anesthetic (Novesina®, Novartis) was administered to the eye. Anterior chamber paracentesis was performed with a 26 G needle attached to a tuberculin syringe; the needle was introduced into the anterior chamber through the cornea, taking care not to damage the tissues. Two hours after the first paracentesis, the animals were sacrificed with 0.4 ml Tanax® (Intervet International B.V.) and the second paracentesis was performed. About 100 μl of aqueous humor were removed at the second paracentesis. Aqueous humor was immediately split in four aliquots and stored at −80° C. until analysis. Then both eyes were enucleated and the iris-ciliary body was carefully excised, placed in polypropylene tubes, and stored at −80° C. until analysis.
For the quantitative determination of PGE2 in the aqueous humor we used the PGE2 Immunoassay kit (R&D Systems; Cat. No. KGE004; Lot. No. 240010). Eleven microliters or 16 μl of aqueous humor were diluted to 110 μl or 160 μl with the calibrator diluent solution provided with the kit. One hundred microliters of samples and of standards were load into a 96-well plate and recorded in a plate layout. Samples were treated following the assay procedure described in the kit. A microplate reader (GDV, Italy; model DV 990 B/V6) set at 450 nm (wavelength correction at 540 nm) was used for making the calibration and analyzing the samples.

[3] = test system: peripheral human blood eosinophils; assay: Spontaneous eosinophil apoptosis (annexin V/PI flow cytometry)
Method: To assess glucocorticoid-induced apoptosis, cells were double-stained with annexin V-Fluos and propidium iodide (PI). Annexin V-Fluos was used according to the manufacturer's instructions.
The suspension was incubated at room temperature for 10 min and analyzed in the BD FACS Canto II flow cytometry system (Becton, Dickinson and Company, New Jersey, USA). Eosinophils and EoL-1 cells were gated on the basis of their forward and side light scatter, with cell debris excluded from analysis. Apoptotic cells were defined as annexin V^+/PI^− cells. A two-way dot plot was prepared to verify the percentage of apoptotic cells. Annexin V^−/PI^− cells were used as control and annexin V^+/PI^+ cells were considered necrotic.
All data are expressed as mean±S.E.M. for the number of experiments indicated. Statistical comparisons were made by ANOVA and post-hoc Newman-Keuls test with differences of P<0.05 considered significant.

[4] = test system: rabbit paracentesis model; assay: Rabbit paracentesis model of ocular inflammation (overall conclusion); assay type: in vivo; details: 0.1%, 0.5% and 1% topical; preliminary conclusion
Excerpt: Inflammatory processes are multidimensional in origin, and are characterized by complex cellular and molecular events involving numerous components all of which have not been identified. Prostaglandins are among these mediators and play an important role in certain forms of ocular inflammation. Paracentesis of the anterior chamber in the rabbit eye induces inflammatory reaction due to the disruption of the blood-aqueous barrier (“BAB”), which is mediated, at least in part, by prostaglandin E2 [References 1-3 below]. Intraocular or topical administration of PGE2 disrupts the BAB. [Reference 4, below] The treatment schedule adopted in this study was similar to the clinical NSAIDs (Ocufen) treatment schedule used by surgeons for patients before cataract surgery.
Each rabbit was placed in a restraint device and tagged with the alphanumeric code. The formulations were instilled (50 μl) into the conjunctival sac of both eyes 180, 120, 90 and 30 min before the first paracentesis; then 15, 30, 90 min after the first paracentesis. To perform the first paracentesis the animals were anaesthetized by intravenous injection of 5 mg/kg Zoletil® (Virbac; 2.5 mg/kg tiletamine HCl and 2.5 mg/kg zolazepam HCl) and one drop of local anesthetic (Novesina®, Novartis) was administered to the eye. […]

[5] = test system: MPO; assay: Myeloperoxidase (MPO) activity in iris-ciliary body; assay type: in vivo, Rabbit; details: for MPO activity in iris-ciliary body, statistical comparison with CTR: p<0.001; for Mean MPO Unit/g (MPO activity in iris-ciliary body samples): group mean, after the second paracentesis; for MPO Unit/g (raw data of MPO activity in iris-ciliary body samples): individual eyes (DX/SX) of rabbits, samples collected after the second paracentesis, listed as BOL
Method: 2.3.2.1 Phosphate Buffer (50 mM; pH=6)
3.9 g of NaH2PO4 2H2O were dissolved in a volumetric flask to 500 ml with water. The pH was adjusted to pH=6 with 3N NaOH.
0.5 g of hexa-decyl-trimethyl-ammonium bromide was dissolved in 100 ml phosphate buffer.
The solution was prepared freshly. Ten microliters of H2O2 (30 wt. %) were diluted to 1 ml with water (solution A). 7.5 mg o-dianisidine 2HCl were dissolved in 45 ml of phosphate buffer and 75 μl of solution A were added.
as §1
The activity of MPO was measured as previously described by Williams et al. The iris-ciliary bodies were carefully dried, weighed and immersed in 1 ml of hexa-decyl-trimethyl-ammonium bromide solution. Then, the samples were sonicated for 10 sec on ice by a ultrasound homogenizer (HD 2070, Bandelin electronic), freeze-thawed three times, sonicated for 10 sec and centrifuged at 14,000 g for 10 min to remove cellular debris. An aliquot of the supernatant (40-200 μl) was diluted to 3 ml with the o-dianisidine 2HCl/H2O2 solution. The change in absorbance at 460 nm was continuously monitored for 5 min by a spectrophotometer (UV/Vis Spectrometer Lambda EZ 201; Perkin Elmer). The slope of the line (Δ/min) was determined for each sample and used to calculate the number of units of MPO in the tissue as follows:
where ε=11.3 mM^−1. Values were expressed as units of MPO/g of tissue.

[6] = test system: human eosinophils; assay: Ionomycin-induced IL-8 secretion in human eosinophils (ELISA); assay type: cell-based; details: Eosinophil, compound 45 min before ionomycin, supernatant after 18 h, read-out: IC50, IL-8 release induced by ionomycin in eosinophils
Method: After 18 h stimulation at 37° C. in a 5% CO2 atmosphere, Interleukin-8 (IL-8) was measured in supernatants obtained from […] with a commercial ELISA kit from R&D Systems. The threshold sensitivity was 5 pg/ml and the inter- and intra-assay variations were less than 5%. The supernatants obtained from HMC-1 cells were aliquoted in duplicates for interleukin-6 (IL-6), IL-8, chemokine (C-C motif) ligand 5 (CCL5)/regulated upon activation, normal T-cell expressed and secreted (RANTES) and tumor necrosis factor-α (TNF-α) analysis using a high-throughput multiplex Luminex technology (Luminex 200 System; Luminex, Austin, Tx, USA) and Beadview software version 1.0 (Upstate Cell Signaling Solutions, Temecula, Calif.). Standard curves for known concentrations of recombinant human cytokines were used to convert median fluorescence intensities to cytokine concentrations in pg/ml. Only the linear portions of the standard curves were used to quantify cytokine concentrations, and in instances where the fluorescence reading exceeded the linear range of the standard curve, an appropriate dilution was performed to ensure that the concentration was in the linear portion of the curve.

SMILES: Cc1ccc2c(NC[C@](O)(CC(C)(C)c3cc(F)cc4c3OCC4)C(F)(F)F)cccc2n1 [BOL-303242-X, (R)-1,1,1-Trifluoro-4-(5-fluoro-2,3-dihydrobenzofuran-7-yl)-4-methyl-2-{[(2-methyl-5-quinolyl)amino]methyl}pentan-2-ol]
- Ability to increase intraocular pressure compared to dexamethasone [1]: reduced ability to increase intraocular pressure
- PGE2 in aqueous humor at the second paracentesis, Mean ([2]; 0.1% topical): 1.452 ng/mL
- PGE2 in aqueous humor at the second paracentesis ([2]; 0.1% topical): 1.62 ng/mL and 1.88 ng/mL and 2.15 ng/mL and 0.70 ng/mL and 1.34 ng/mL and 1.03 ng/mL
- PGE2 in aqueous humor, statistical comparison with CTR ([2]; 0.1% topical): statistically significant versus CTR
- PGE2 in aqueous humor at the second paracentesis, Mean ([2]; 0.5% topical): 1.384 ng/mL
- PGE2 in aqueous humor at the second paracentesis ([2]; 0.5% topical): 2.31 ng/mL and 2.59 ng/mL and 0.53 ng/mL and 0.75 ng/mL and 0.80 ng/mL and 1.62 ng/mL and 1.09 ng/mL
- PGE2 in aqueous humor, statistical comparison with CTR ([2]; 0.5% topical): statistically significant versus CTR
- PGE2 in aqueous humor at the second paracentesis, Mean ([2]; 1% topical): 2.168 ng/mL
- PGE2 in aqueous humor at the second paracentesis ([2]; 1% topical): 0.50 ng/mL and 1.87 ng/mL and 1.71 ng/mL and 4.04 ng/mL and 1.11 ng/mL and 3.78 ng/mL
- Eosinophil apoptosis after 24 h exposure ([3]; 24 h, 0.1% FBS, 100 and 1000 nM, data not shown): lower but significant apoptosis
- Percentage of annexin-V+/PI+ (necrotic) peripheral blood eosinophils ([3]; 48 h, 5000 nM, mean±SEM, n=12, p>0.05 vs without compound (34±10%)): 25±9%
- Efficacy, enhancement of spontaneous eosinophil apoptosis ([3]; 48 h, 0.1% FBS, no GM-CSF/IL-5, 1-5000 nM): 90%
- EC50 ([3]; read-out: EC50, enhancement of spontaneous eosinophil apoptosis, 48 h, 0.1% FBS, no GM-CSF/IL-5, 1-5000 nM): 456 nM
- Activity in the rabbit paracentesis model [4]: active in this model
- MPO activity in iris-ciliary body, statistical comparison with CTR ([5]; 0.1% topical): statistical significance
- Mean MPO Unit/g (MPO activity in iris-ciliary body samples) ([5]; 0.1% treatment): 0.971 Unit/g
- MPO Unit/g (raw data of MPO activity in iris-ciliary body samples) ([5]; 0.1% treatment): 1.04 Unit/g and 1.00 Unit/g and 1.14 Unit/g and 1.06 Unit/g and 1.22 Unit/g and 0.61 Unit/g and 1.05 Unit/g and 0.65 Unit/g
- MPO activity in iris-ciliary body, statistical comparison with CTR ([5]; 0.5% topical): statistical significance
- Mean MPO Unit/g (MPO activity in iris-ciliary body samples) ([5]; 0.5% treatment): 0.775 Unit/g
- MPO Unit/g (raw data of MPO activity in iris-ciliary body samples) ([5]; 0.5% treatment): 0.85 Unit/g and 0.93 Unit/g and 0.79 Unit/g and 1.03 Unit/g and 0.75 Unit/g and 0.74 Unit/g and 0.54 Unit/g and 0.58 Unit/g
- MPO activity in iris-ciliary body, statistical comparison with CTR ([5]; 1% topical): statistical significance
- Mean MPO Unit/g (MPO activity in iris-ciliary body samples) ([5]; 1% treatment): 0.542 Unit/g
- MPO Unit/g (raw data of MPO activity in iris-ciliary body samples) ([5]; 1% treatment): 0.66 Unit/g and 0.68 Unit/g and 0.49 Unit/g and 0.40 Unit/g and 0.34 Unit/g and 1.02 Unit/g and 0.31 Unit/g and 0.43 Unit/g
- IC50 [6]: 10.7 nM
